Columns and labels:
[1] = target: T1, Type-1 angiotensin II receptor (Homo sapiens, UniProt P30556); experiment: (§1) Displacement of 125[I-Sar1-Ile8]ANG II from human AT1 receptor expressed in HEK293 membranes after 1 hr by gamma counting; assay type: cell membranes
T1 sequence (P30556 whole entry): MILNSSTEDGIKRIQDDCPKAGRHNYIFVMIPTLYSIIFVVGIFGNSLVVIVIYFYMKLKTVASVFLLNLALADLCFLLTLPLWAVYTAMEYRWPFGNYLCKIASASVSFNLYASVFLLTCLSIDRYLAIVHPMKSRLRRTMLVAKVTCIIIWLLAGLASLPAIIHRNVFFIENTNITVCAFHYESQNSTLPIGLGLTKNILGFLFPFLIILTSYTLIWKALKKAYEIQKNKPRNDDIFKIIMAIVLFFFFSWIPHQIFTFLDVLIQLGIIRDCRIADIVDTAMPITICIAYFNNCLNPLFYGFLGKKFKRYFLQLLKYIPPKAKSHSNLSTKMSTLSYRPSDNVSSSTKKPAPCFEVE

[2] = Antagonist activity at AT1 receptor in rat uterus assessed inhibition of ANG II-induced contraction
[3] = target: T2, Type-1 angiotensin II receptor (Homo sapiens) (UniProt P30556); experiment: as §1; assay type: cell membranes
T2 sequence (whole entry): T1 sequence (P30556 whole entry)

Structure (SMILES)	IC50 ([1]; read-out: IC50) [nM]	pA2 [2]	Activity [3]	IC50 ([1]; read-out: pIC50 (converted)) [nM]
CCCCc1cnc(CO)n1Cc1ccc(-c2ccccc2-c2nnn[nH]2)cc1	30			
CCCCc1cnc(C(=O)O)n1Cc1ccc(-c2ccccc2-c2nn[nH]n2)cc1		7.83	Dose-dependent effect	
CCCCc1c(I)nc(CO)n1Cc1ccc(-c2ccccc2-c2nnn[nH]2)cc1	446			
CCCCc1c(Br)nc(CO)n1Cc1ccc(-c2ccccc2-c2nnn[nH]2)cc1	117			
CCCCc1cnc(C=O)n1Cc1ccc(-c2ccccc2-c2nn[nH]n2)cc1	24	7.76	Dose-dependent effect	
CCCCc1c(I)nc(CO)n1Cc1ccc(-c2ccccc2-c2nn[nH]n2)cc1		7.35	Dose-dependent effect	
CCCCc1cnc(CO)n1Cc1ccc(-c2ccccc2-c2nn[nH]n2)cc1		7.97	Dose-dependent effect	
CCCCc1cnc(CO)n1Cc1ccc(-c2ccccc2C(=O)O)cc1	245	6.19	Dose-dependent effect	

More lines, now with the values ahead:

IC50 ([1]; read-out: IC50) [nM]	pA2 [2]	Activity [3]	IC50 ([1]; read-out: pIC50 (converted)) [nM]	Structure (SMILES)
3			3.47	CCCCc1cnc(C(=O)O)n1Cc1ccc(-c2ccccc2-c2nnn[nH]2)cc1
	7.58	Dose-dependent effect		CCCCc1c(Br)nc(CO)n1Cc1ccc(-c2ccccc2-c2nn[nH]n2)cc1
		Dose-dependent effect		CCCCc1nc(Cl)c(CO)n1Cc1ccc(-c2ccccc2-c2nnn[nH]2)cc1
634	6.98	Dose-dependent effect		CCCCc1c(Cl)nc(CO)n1Cc1ccc(-c2ccccc2-c2nn[nH]n2)cc1
